Source: PMC9570490, “Novel Morpholine-Bearing Quinoline Derivatives as Potential Cholinesterase Inhibitors: The Influence of Amine, Carbon Linkers and Phenylamino Groups” (International Journal of Molecular Sciences, 2022)
Converted amounts (≈) assume the structure as drawn.

Legend:
[1] = molecular target: T1, BChE (EC 3.1.1.8, from horse serum) (Equus caballus, UniProt P81908); test: biochemical; conditions: means ± SD, at least three independents
T1 construct: BChE (EC 3.1.1.8, from horse serum); purchased Sigma-Aldrich; host or cells: horse serum
T1 sequence (P81908 whole entry): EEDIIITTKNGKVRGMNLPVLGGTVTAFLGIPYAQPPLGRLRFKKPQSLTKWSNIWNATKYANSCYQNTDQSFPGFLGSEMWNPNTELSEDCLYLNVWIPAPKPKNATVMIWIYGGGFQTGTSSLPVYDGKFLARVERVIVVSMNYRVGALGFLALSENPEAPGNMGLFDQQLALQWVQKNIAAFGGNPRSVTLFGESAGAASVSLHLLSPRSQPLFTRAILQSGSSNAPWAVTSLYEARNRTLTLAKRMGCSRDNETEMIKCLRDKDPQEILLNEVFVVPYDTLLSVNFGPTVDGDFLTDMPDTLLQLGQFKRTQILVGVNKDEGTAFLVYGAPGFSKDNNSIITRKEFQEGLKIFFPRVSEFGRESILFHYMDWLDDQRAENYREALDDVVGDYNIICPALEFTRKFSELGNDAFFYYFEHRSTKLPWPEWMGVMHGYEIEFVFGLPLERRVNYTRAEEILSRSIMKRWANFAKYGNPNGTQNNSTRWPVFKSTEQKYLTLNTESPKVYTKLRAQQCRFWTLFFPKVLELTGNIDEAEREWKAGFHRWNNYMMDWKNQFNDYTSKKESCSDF
Method: (§1) AChE and BChE inhibitory activities of compounds were determined by using a modified Ellman’s method. AChE (EC 3.1.1.7, from electric eel), BChE (EC 3.1.1.8, from horse serum), 5,5′-dithiobis(2nitrobenzoic acid) (DTNB), acetylthiocholine iodide (ATCI) and butyrylthiocholine iodide (BTCI) were purchased from Sigma-Aldrich. The reaction mixture contained 140 μL of 100 mM sodium phosphate buffer (pH 8.0), the enzyme solution (either 0.05 U/mL of AChE, 20 μL; or 0.05 U/mL of BChE, 20 μL), and test compound (20 μL). Assayed solutions of test compounds were pre-incubated with corresponding ChE at 25 °C for 15 min. The reaction was initiated by the addition of 10 μL of 10 mM DTNB and 10 μL of 7.5 mM substrate (ATCI or BTCI). The activity was determined by measuring the increase in absorbance at 412 nm at 37 °C in 10 min intervals using a microplate reader. The percentage of inhibition was calculated from the measured data as follows: (Ac − Ai)/Ac × 100%, where Ai and Ac represent the change in the absorbance in the presence of inhibitor and without inhibitor, respectively.

[2] = molecular target: T2, AChE (EC 3.1.1.7, from electric eel) (Electrophorus electricus, UniProt O42275); test: biochemical; conditions: for IC50: means ± SD, at least three independents
T2 construct: purchased Sigma-Aldrich
T2 sequence (O42275 24-633): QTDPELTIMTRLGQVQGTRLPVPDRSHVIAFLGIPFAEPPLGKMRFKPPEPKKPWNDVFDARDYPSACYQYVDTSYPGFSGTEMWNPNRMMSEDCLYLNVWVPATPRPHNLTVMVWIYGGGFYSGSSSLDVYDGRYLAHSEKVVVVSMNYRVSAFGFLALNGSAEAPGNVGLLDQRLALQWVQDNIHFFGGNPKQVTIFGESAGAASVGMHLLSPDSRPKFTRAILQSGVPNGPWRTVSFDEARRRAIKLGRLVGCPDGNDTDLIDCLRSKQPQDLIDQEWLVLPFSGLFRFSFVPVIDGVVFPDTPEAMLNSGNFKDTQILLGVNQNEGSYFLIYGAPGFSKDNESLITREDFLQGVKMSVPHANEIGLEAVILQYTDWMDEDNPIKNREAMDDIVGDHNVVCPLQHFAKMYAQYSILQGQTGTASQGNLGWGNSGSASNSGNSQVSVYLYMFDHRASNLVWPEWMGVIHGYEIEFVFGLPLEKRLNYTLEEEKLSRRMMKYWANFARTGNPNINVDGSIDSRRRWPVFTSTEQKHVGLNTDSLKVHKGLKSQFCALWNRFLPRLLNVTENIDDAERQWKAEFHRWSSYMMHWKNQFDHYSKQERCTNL
Method: as §1

[3] = ABTS radical-scavenging assay
Method: ABTS radical-scavenging activity was measured by using the modified method. The test compound was dissolved in ethanol as 1.0 mg/mL, 0.5 mg/mL, 0.25 mg/mL, 0.125 mg/mL, 0.0625 mg/mL, and 0.03125 mg/mL. Similarly, the ethanol solution of Trolox with the same concentration gradient was prepared as a positive control. ABTS solution at a concentration of 7 mM and potassium persulfate solution at a concentration of 2.45 mM with distilled water were also prepared. The ABTS solution and the potassium persulfate solution were mixed in equal amounts, and then placed in the dark and protected from light for 12 h. The ABTS standard solution was diluted with ethanol until the absorbance value at 734 nm was in the range of 0.7 ± 0.05. Then, 3900 µL of ABTS cation solution was mixed with 100 µL of test compound at different concentrations. The samples were kept in the dark for 10 min at room temperature and absorption was measured at 734 nm on a spectrophotometer. The percentage of ABTS radical-scavenging activity was calculated as follows: (Ac−Ai)/Ac × 100%, where Ai and Ac represented the change in absorbance in the presence and absence of the test sample, respectively.

[4] = Lipophilicity (LogP) determination, shake-flask octanol/water; format: physicochemical; conditions: HPLC, read-out: LogP (experimental)
Excerpt: For anti-Alzheimer drug candidates, the ability to cross the blood–brain barrier (BBB) and to enter the central nervous system (CNS) is crucial to achieve their pharmacological target binding and activity, and CNS drugs require more strict rules for a successful penetration. […] Besides, for molecules to penetrate the BBB, a topological polar surface area (TPSA) value less than 90 Å ^2 is usually needed and molecules with a TPSA of greater than 120 Å ^2 tend to be poor in permeating cell membranes. Therefore, the molar mass (MW), LogP, and TPSA of all target compounds were simulated by ChemDraw 19.0 (Table 1). […] Because LogP was thought as an important physicochemical parameter to evaluate the ability to cross BBB, the LogP of some compounds was further assessed in experiments.
The lipophilicities of test compounds were determined using the traditional shake-flask method. A solid test compound (2 mg) was placed into a 10 mL pear-shaped flask, and measured volumes of octanol and water were added for logP determination. The resulting biphasic mixture was stirred for 24 h and then left without stirring for 12 h to allow phase separation. The test compound in each phase was sampled and quantitated using HPLC. The areas under the peaks were divided and the log taken.

[5] = Water solubility, shake-flask method; format: physicochemical; conditions: thermodynamic from solid, double distilled water, 37 °C
Method: Water solubility is regarded as another vital descriptor for BBB penetration, where high solubility is considered as a prerequisite for a rapid absorption and higher bioavailability of a drug candidate. […] With this experiment, we have obtained their data as 0.62, 3.03, 12.9, and […] for the selected compounds 11a, 11g, 12a, and 12c, respectively.
Solubility was determined by using the shake-flask method.The desired amount of the compound was placed in a test tube, to which an appropriate amount of double distilled water was introduced. The suspension was agitated on a plate shaker at 37 °C for 24 h. After centrifuging, HPLC analyses of supernatant was performed. The solubility of the compound was obtained from its HPLC result.

| SMILES | IC50 [1] [µM] | SI for AChE = IC50 BChE/IC50 AChE [2] | IC50 [2] [µM] | ABTS radical-scavenging IC50 [3] [µg/mL] | IC50 [3] [µM] | logP at 24 h [4] | solubility at 24 h [5] [mg/mL] |
| --- | --- | --- | --- | --- | --- | --- | --- |
| COc1cc2c(Nc3ccccc3Cl)c([N+](=O)[O-])cnc2cc1OCCCN1CCOCC1 [11b, 6-Methoxy-7-(3-Morpholinopropoxy)-3-Nitro-4-(2-Chlorophenylamino)-Quinoline] | 130 ± 4.62 | 10.42 | 12.5 ± 0.21 | – | – | – | – |
| COc1cc2c(Nc3cccc(Cl)c3)c([N+](=O)[O-])cnc2cc1OCCCN1CCOCC1 [11c, 6-Methoxy-7-(3-Morpholinopropoxy)-3-Nitro-4-(3-Chlorophenylamino)-Quinoline] | 114 ± 5.36 | 3.55 | 32.4 ± 0.16 | – | – | – | – |
| COc1cc2c(Nc3ccc(Cl)cc3)c([N+](=O)[O-])cnc2cc1OCCCN1CCOCC1 [11d, 6-Methoxy-7-(3-Morpholinopropoxy)-3-Nitro-4-(4-Chlorophenylamino)-Quinoline] | 82.4 ± 3.06 | 0.92 | 88.7 ± 1.1 | – | – | – | – |
| COc1cc2c(Nc3ccc(O)cc3)c([N+](=O)[O-])cnc2cc1OCCCN1CCOCC1 [11e, 6-Methoxy-7-(3-Morpholinopropoxy)-3-Nitro-4-(4-Hydroxylphenylamino)-Quinoline] | > 150 | >4.35 | 34.47 ± 0.09 | 12.01 ± 1.49 | 26.4 ± 3.28 | – | – |
| COc1ccc(Nc2c([N+](=O)[O-])cnc3cc(OCCCN4CCOCC4)c(OC)cc23)cc1 [11f, 6-Methoxy-7-(3-Morpholinopropoxy)-3-Nitro-4-(4-Methoxyphenylamino)-Quinoline] | 96.6 ± 4.75 | 7.54 | 12.8 ± 0.55 | 4.25 ± 0.63 | 9.07 ± 1.34 | – | – |
| COc1cc2c(Nc3ccccc3Cl)c([N+](=O)[O-])cnc2cc1OCCN1CCOCC1 [11h, 6-Methoxy-7-(2-Morpholinoethoxy)-3-Nitro-4-(2-Chlorophenylamino)-Quinoline] | 81.1 ± 4.03 | 12.55 | 6.46 ± 0.77 | – | – | – | – |
| COc1cc2c(Nc3cccc(Cl)c3)c([N+](=O)[O-])cnc2cc1OCCN1CCOCC1 [11i, 6-Methoxy-7-(2-Morpholinoethoxy)-3-Nitro-4-(3-Chlorophenylamino)-Quinoline] | 111 ± 5.59 | 11.08 | 10 ± 0.52 | – | – | – | – |
| COc1cc2c(Nc3ccc(Cl)cc3)c([N+](=O)[O-])cnc2cc1OCCN1CCOCC1 [11j, 6-Methoxy-7-(2-Morpholinoethoxy)-3-Nitro-4-(4-Chlorophenylamino)-Quinoline] | 76.8 ± 3.76 | 8.90 | 8.63 ± 0.4 | – | – | – | – |
| COc1cc2c(Nc3ccc(O)cc3)c([N+](=O)[O-])cnc2cc1OCCN1CCOCC1 [11k, 6-Methoxy-7-(2-Morpholinoethoxy)-3-Nitro-4-(4-Hydroxylphenylamino)-Quinoline] | > 150 | >8.11 | 18.5 ± 1.74 | 5.75 ± 1.37 | – | – | – |
| COc1ccc(Nc2c([N+](=O)[O-])cnc3cc(OCCN4CCOCC4)c(OC)cc23)cc1 [11l, 6-Methoxy-7-(2-Morpholinoethoxy)-3-Nitro-4-(4-Methoxyphenyamino)-Quinoline] | 63.9 ± 2.87 | 7.03 | 9.08 ± 0.53 | 2.75 ± 0.53 | 6.05 ± 1.17 | – | – |
| COc1cc2c(Nc3ccccc3)c([N+](=O)[O-])cnc2cc1OCCCCN1CCOCC1 [11m, 6-Methoxy-7-(4-Morpholinobutoxy)-3-Nitro-4-Phenylamino-Quinoline] | > 150 | >11.24 | 13.34 ± 0.07 | – | – | – | – |
| COc1cc2c(Nc3ccccc3Cl)c([N+](=O)[O-])cnc2cc1OCCCCN1CCOCC1 [11n, 6-Methoxy-7-(4-Morpholinobutoxy)-3-Nitro-4-(2-Chlorophenylamino)-Quinoline] | > 150 | >1.75 | 85.57 ± 0.04 | – | – | – | – |
| COc1cc2c(Nc3cccc(Cl)c3)c([N+](=O)[O-])cnc2cc1OCCCCN1CCOCC1 [11o, 6-Methoxy-7-(4-Morpholinobutoxy)-3-Nitro-4-(3-Chlorophenylamino)-Quinoline] | 116 ± 5.36 | <0.77 | > 150 | – | – | – | – |
| COc1cc2c(Nc3ccc(Cl)cc3)c([N+](=O)[O-])cnc2cc1OCCCCN1CCOCC1 [11p, 6-Methoxy-7-(4-Morpholinobutoxy)-3-Nitro-4-(4-Chlorophenylamino)-Quinoline] | 98.1 ± 0.02 | 1.08 | 90.46 ± 0.06 | – | – | – | – |
| COc1cc2c(Nc3ccc(O)cc3)c([N+](=O)[O-])cnc2cc1OCCCCN1CCOCC1 [11q, 6-Methoxy-7-(4-Morpholinobutoxy)-3-Nitro-4-(4-Hydroxyphenylamino)-Quinoline] | > 150 | >4.07 | 36.8 ± 0.45 | 26.12 ± 2.13 | 55.8 ± 4.55 | – | – |
| COc1ccc(Nc2c([N+](=O)[O-])cnc3cc(OCCCCN4CCOCC4)c(OC)cc23)cc1 [11r, 6-Methoxy-7-(4-Morpholinobutoxy)-3-Nitro-4-(4-Methoxyphenylamino)-Quinoline] | 106 ± 1.16 | 5.65 | 18.9 ± 0.51 | 11.25 ± 1.27 | 23.3 ± 2.63 | – | – |
| COc1cc2c(Nc3ccccc3)c(N)cnc2cc1OCCCN1CCOCC1 [12a, 6-Methoxy-7-(3-Morpholinopropoxy)-3-Amino-4-Phenylamino-Quinoline] | 30.5 ± 2.48 | 3.34 | 9.13 ± 0.42 | – | – | 2.07 | 12.9 (≈ 31.6 mM) |
| COc1cc2c(Nc3ccccc3Cl)c(N)cnc2cc1OCCCN1CCOCC1 [12b, 6-Methoxy-7-(3-Morpholinopropoxy)-3-Amino-4-(2-Chlorophenylamino)-Quinoline] | 130 ± 3.76 | 3.01 | 43.3 ± 0.68 | – | – | – | – |
| COc1cc2c(Nc3cccc(Cl)c3)c(N)cnc2cc1OCCCN1CCOCC1 [12c, 6-Methoxy-7-(3-Morpholinopropoxy)-3-Amino-4-(3-Chlorophenylamino)-Quinoline] | 27.8 ± 2.16 | 1.26 | 22.1 ± 0.33 | – | – | 2.35 | 10.5 (≈ 23.7 mM) |
| COc1cc2c(Nc3ccc(Cl)cc3)c(N)cnc2cc1OCCCN1CCOCC1 [12d, 6-Methoxy-7-(3-Morpholinopropoxy)-3-Amino-4-(4-Chlorophenylamino)-Quinoline] | 145 ± 4.25 | 6.63 | 21.84 ± 0.2 | – | – | – | – |
| Cc1c(C)c2c(c(C)c1O)CCC(C)(C(=O)O)O2 (centres unmarked) [Trolox, reference compound] | – | – | – | 2.76 ± 0.19 | 11 ± 0.76 | – | – |
